These are literature values, as cited in patent US20060147527A1, “Controlled release preparations comprising tramadol and topiramate” (CILAG AG, priority 2002, published 2006).

In the series the test system is Chung model of post-nerve constriction injury. The note with it: each drug alone.

Regarding `COc1cccc(C2(O)CCCCC2CN(C)C)c1` (single isomer, unassigned) [tramadol, (1R,2R or 1S,2S)-2-[(dimethylamino)methyl]-1-(3-methoxyphenyl)-cyclohexanol], the “maximal effect reached as the dose is escalated” value was 100 % MPE.

Consider `CC1(C)O[C@@H]2[C@@H](CO[C@@]3(COS(N)(=O)=O)OC(C)(C)O[C@@H]23)O1` [topiramate, 2,3:4,5-bis-O-(1-methylethylidene)-β-D-fructopyranose sulfamate], for which the “maximal effect reached as the dose is escalated” value was 100 % MPE.
